Measured values from patent publication US20230073834A1, “SUBNORMOTHERMIC MACHINE PERFUSION OF ORGANS WITH CARBON MONOXIDE AND OXYGEN” (priority 2021, published 2023).

How the values were obtained:
[1] = test system: porcine DCD kidneys; experiment: Ex vivo pulsatile perfusion of porcine DCD kidneys with CORM-401 in UW solution, then blood reperfusion; design: species or system large male Landrace pig
Procedure: (§1) Methods: To stimulate donation after circulatory death condition, kidneys from large male Landrace pig were retrieved after 1-hour warm ischemia in situ by cross-clamping the renal pedicle. […] Kidneys were then reperfused with normothermic isogeneic porcine blood through oxygenated pulsatile perfusion for 10 hours. Urine was collected, vascular flow was assessed during reperfusion and histopathology was assessed after 10 hours of reperfusion. Sections were stained with H&E (not shown), TUNEL (FIG. 4A) and MSB (FIG. 4B) to quantify ATN (FIG. 4C), Apoptosis (brown spot), Hemorrhage (yellow stain), and neutrophil gelatinase-associated lipocalin (NGAL) to quantify kidney injury (FIG. 4D).

[2] = test system: Toll-like receptor 2; experiment: Toll-like receptor suppression in CORM-401 perfused porcine DCD kidneys; design: species or system large male Landrace pig; details: 200 μM CORM-401 perfused kidneys
Procedure: as §1

[3] = test system: Toll-like receptor 4; experiment: as above; design: species or system large male Landrace pig; details: 200 μM CORM-401 perfused kidneys
Procedure: as §1

[4] = test system: Toll-like receptor 6; experiment: as above; design: species or system large male Landrace pig; details: 200 μM CORM-401 perfused kidneys
Procedure: as §1

[5] = test system: Pig kidneys; experiment: Ex vivo subnormothermic (22° C.) pulsatile perfusion of pig kidneys with HBOC-201 versus blood or static cold storage
Procedure: Methods: Pig kidneys (n=5) were procured after 30 minutes of warm in situ ischemia by cross-clamping the renal arteries. Organs were flushed with histidine tryptophan ketoglutarate solution and subjected to static cold storage or pulsatile perfusion with an RM3 pump at 22° C. for 4 hours with HBOC-201 and blood. Thereafter, kidneys were reperfused with normothermic (37° C.) oxygenated blood for 4 hours. Blood and urine were subjected to biochemical analysis. Total urine output, urinary protein, albumin/creatinine ratio, flow rate, resistance were measured. Acute tubular necrosis, apoptosis, urinary kidney damage markers, neutrophil gelatinase-associated lipocalin 1, and interleukin 6 were also assessed.

[6] = 200 μM, 4 h perfusion at 4° C. in UW solution, 10 h blood reperfusion, vs inactive CORM-401
[7] = 22° C. 4 hours perfusion, 4 hours reperfusion, as with blood
[8] = 22° C. 4 hours perfusion, 4 hours reperfusion, versus cold storage

| Compound | intrarenal hemorrhage and vascular dotting during reperfusion ([1]; 200 μM, 4 h perfusion at 4° C. in UW solution, 10 h blood reperfusion) | ATN (acute tubular necrosis) in histopathologic sections [1, 6] | dUTP nick end labeling staining in histopathologic sections [1, 6] | kidney damage markers (kidney damage marker-1 and neutrophil gelatinase-associated lipocalin) [1, 6] | urinary protein excretion ([1]; 200 μM, 4 h perfusion at 4° C. in University of Wisconsin solution, 10 h normothermic blood reperfusion, vs inactive CORM-401) | injury in porcine DCD kidneys ([1]; 1 h warm ischemia, perfusion with UW solution, 10 h blood reperfusion at 37° C.) | Toll-like receptor 2 suppression (anti-inflammatory action) [2] | Toll-like receptor 4 suppression (anti-inflammatory action) [3] | Toll-like receptor 6 suppression (anti-inflammatory action) [4] | renal blood flow and function upon reperfusion ([5]; 22° C. 4 hours perfusion, 4 hours reperfusion with 37° C. oxygenated blood, compared with blood-treated kidneys) | IL6 levels [5, 7] | Urinary damage markers [5, 7] | TUNEL staining (apoptosis) [5, 8] | acute tubular necrosis scores [5, 8] | TUNEL staining (apoptosis) ([5]; 22° C. 4 hours perfusion, 4 hours reperfusion, versus cold storage, listed as HBOC) | tissues oxygen saturation ([5]; 22° C., 4 hours perfusion, compared with blood) |
| --- | --- | --- | --- | --- | --- | --- | --- | --- | --- | --- | --- | --- | --- | --- | --- | --- |
| CN(CC(=O)O)C(=S)[S-].[C-]#[O+].[C-]#[O+].[C-]#[O+].[C-]#[O+].[Mn] [CORM-401] | prevented | reduced | reduced | attenuated | reduced | reduced injury | suppressing | suppressing | suppressing | – | – | – | – | – | – | – |
| HBOC-201: acellular hemoglobin-based oxygen carrier; blood free oxygen carrier (Hemopure) | – | – | – | – | – | – | – | – | – | similar | similarly reduced | similarly reduced | vastly reduced | vastly reduced | reduces apoptosis | equivalent to blood |
